Test results: US11230526B1, “Cylcoalkenyl derivatives useful as agonists of the GPR120 and/or GPR40 receptors” (Janssen Pharmaceutica NV, priority 2018, dated 2022)
Where “and” joins values, the source holds several entries; their conditions need not be identical. Identical values can stand only once.

Tests used:
Type in all cases: cell-based
Human GPR120 short form = target: T1, Human GPR120 short form (Homo sapiens, UniProt Q5NUL3); assay: Human GPR120 calcium flux assay, Procedure Calcium B (4200 cells/well)
T1 construct: expressed in transfected cells
T1 sequence (Q5NUL3 1-361): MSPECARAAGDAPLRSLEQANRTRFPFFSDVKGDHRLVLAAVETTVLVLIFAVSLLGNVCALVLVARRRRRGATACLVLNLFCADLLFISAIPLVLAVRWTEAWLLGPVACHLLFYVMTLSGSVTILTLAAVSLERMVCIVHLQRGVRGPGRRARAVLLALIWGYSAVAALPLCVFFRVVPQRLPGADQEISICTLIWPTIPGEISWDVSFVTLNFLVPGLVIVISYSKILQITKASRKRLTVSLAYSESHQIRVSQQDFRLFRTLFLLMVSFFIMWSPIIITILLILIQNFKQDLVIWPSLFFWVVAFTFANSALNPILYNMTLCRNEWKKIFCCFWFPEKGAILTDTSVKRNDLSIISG
Summary of the method: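 Agonist EC50 came from a four-parameter fit of RFU (Fmax−Fmin) read over 300 s on FLIPR. Cells were HEK293 stably transfected with human GPR120 (NM_001195755.1) at 4200 per well, serum-starved 1 h and loaded with Fluo-4 NW dye with probenecid before ligand addition.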

human GPR40 = target: T2, human GPR40 (Homo sapiens, UniProt O14842); assay: GPR40 calcium flux assay, human GPR40; details: HEK293 cells stably expressing GPR40; table does not say human or rat
T2 construct: expressed in transfected cells
T2 sequence (O14842 whole entry): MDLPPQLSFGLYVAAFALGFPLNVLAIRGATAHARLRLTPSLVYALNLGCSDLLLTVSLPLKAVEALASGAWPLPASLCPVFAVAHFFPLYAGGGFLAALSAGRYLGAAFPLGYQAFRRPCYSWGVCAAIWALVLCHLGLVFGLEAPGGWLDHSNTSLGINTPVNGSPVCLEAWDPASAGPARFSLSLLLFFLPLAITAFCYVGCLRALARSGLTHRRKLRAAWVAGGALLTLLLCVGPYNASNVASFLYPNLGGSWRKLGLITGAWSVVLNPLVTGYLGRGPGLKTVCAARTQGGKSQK
Summary of the method: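 Cells preincubated 1 h at 37° C. in HBSS, 20 mM HEPES, 0.1% BSA, then Fluo 8 calcium dye 30 min at 37° C. and 15 min at room temperature.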

[1] = target: T3, long form of human GPR120 (Homo sapiens, UniProt Q5NUL3); assay: Human GPR120 DiscoveRx PathHunter Beta-Arrestin assay, Procedure β-arrestin A
T3 construct: host or cells: PathHunter CHO-K1 GPR120 β-Arrestin Cell Line
T3 sequence (Q5NUL3 1-377 isoform Q5NUL3-1): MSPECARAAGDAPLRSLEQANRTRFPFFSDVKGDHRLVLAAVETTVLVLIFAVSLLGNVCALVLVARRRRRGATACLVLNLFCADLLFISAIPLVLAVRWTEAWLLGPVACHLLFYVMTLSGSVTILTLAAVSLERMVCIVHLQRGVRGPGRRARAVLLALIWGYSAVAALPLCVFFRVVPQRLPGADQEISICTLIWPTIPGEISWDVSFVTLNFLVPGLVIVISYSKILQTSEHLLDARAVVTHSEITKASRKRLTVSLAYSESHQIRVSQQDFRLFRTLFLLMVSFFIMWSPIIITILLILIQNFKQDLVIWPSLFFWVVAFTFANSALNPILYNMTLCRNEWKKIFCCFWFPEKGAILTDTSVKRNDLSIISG
T3 sequence (P32121 whole entry partner): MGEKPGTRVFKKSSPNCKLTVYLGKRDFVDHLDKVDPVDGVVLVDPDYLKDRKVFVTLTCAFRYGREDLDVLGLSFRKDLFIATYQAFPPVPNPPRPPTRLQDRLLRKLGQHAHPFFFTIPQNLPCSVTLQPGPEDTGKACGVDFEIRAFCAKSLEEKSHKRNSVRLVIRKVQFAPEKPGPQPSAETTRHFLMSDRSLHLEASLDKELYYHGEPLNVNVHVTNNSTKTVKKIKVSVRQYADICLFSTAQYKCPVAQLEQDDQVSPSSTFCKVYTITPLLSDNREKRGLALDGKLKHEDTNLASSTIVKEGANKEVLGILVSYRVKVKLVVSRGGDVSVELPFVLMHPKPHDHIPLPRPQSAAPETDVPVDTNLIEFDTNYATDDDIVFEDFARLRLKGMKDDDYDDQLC
Description: Human GPR120 DiscoveRx PathHunter® Beta-Arrestin Assay Assay Principle:
The binding of an agonist (medium/long chain fatty acids or small molecule agonists) to the G-protein-coupled receptor GPR120 activates phospholipase C, leading to release of intracellular Ca^+2 through the generation of inositol 1,4,5-trisphosphate (InsP3 or IP3). GPR120 activation can also trigger intracellular signaling via recruitment of Beta-Arrestin. In the present method, agonist-induced activation of the human GPR120 receptor is monitored through the use of PathHunter® CHO-K1 GPR120 Beta-Arrestin Cell Line engineered by DiscoveRx, as detailed below. The cell lines are designed to co-express both the ProLink/Enzyme Donor (PK)-tagged GPCR and the Enzyme […] (EA)-tagged Beta-Arrestin fusion proteins. Upon GPR120 receptor stimulation/activation, the EA-tagged Beta-Arrestin portion is translocated to the tagged receptor, where the two enzyme fragments are brought within close proximity. Under these conditions, these fragments can interact and form an active Beta-gal enzyme complex through Enzyme Fragment Complementation (EFC). This active Beta-gal complex can enzymatically hydrolyse the substrate to produce a detectable light signal; therefore, activation as a function of agonist concentration can be expressed as an EC50 value to determine relative compound activities. This in vitro assay therefore serves to assess compound agonist activity of the GPR120.
In Procedure β-arrestin A, the cell used were PathHunter® CHO-K1 GPR120 β-Arrestin Cell Line, expressing the long form of human GPR120 (Genbank accession number NM_181745), with 3000 cells per well.
The selected CHO-K1 GPR120 β-Arrestin cells were cultured in Ham's F12 media supplemented with 10% fetal bovine serum (FBS), 1% Glutamine, 1×p/s, 800 μg/mL G418 and 300 μg/mL Hygromycin B (for selection). Cell stocks were maintained and grown in a sub-confluent state using standard cell culture procedures. The day before the experiment, the cells were harvested with non-enzymatic cell dissociation buffer and re-suspended in complete growth media at the desired concentration. A Corning 384-plate was then seeded with the proper number of cells in a volume of 25 μL, per well. The seeded plates were incubated overnight at 37° C.
On the day of the experiment, the Assay Buffer containing (a) HBSS with Ca^++ and Mg^++, (b) 20 mM HEPES, and (c) 0.1% BSA stabilizer (pH 7.4) was prepared. The growth medium was gently removed from the cell plates and 20 μL of Assay Buffer added to each well. The plate was then incubated at 37° C. for 60 min. Test compounds were serially diluted in Assay Buffer to desired concentrations (more particularly to one or more of the following μM concentrations: 25, 12.5, 6.25, 3.12, 1.56, 0.78, 0.39, 0.19, 0.10, 0.05, 0.02, 0.01). Five μL of compound dilution was then added to each well and the plate incubated at 37° C. for 90 min. The detection reagents were prepared according to the manufacture's instruction. Twelve μL of the detection reagents were added to each well and the plate incubated at room temperature for 60 min.
The plates were read on an EnVision instrument, using Protocol name: Luminescence, Plate type: 384 Costar, Measurement height: 3 mm, Measurement time: 1 s, Aperture: 384 Plate aperture. The % Activity relative to the positive control was calculated using the following equation:
The % Activity values were plotted versus the concentration of test compound and fitted to a sigmoidal dose-response curve with a Hill slope=1 (fixed value) using nonlinear regression with GraphPad Prism 5.0 to calculate the EC50 values. The Fitting Equation was: Y=Bottom+(Top-Bottom)/(1+10^((Log EC50−X)*HillSlope)), where X is the log of the concentration and Y is the response.

SMILES	EC50 (Human GPR120 short form) [µM]	EC50 (human GPR40)	EC50 [1] [µM]
Cc1cc(CCC(=O)O)cc(Br)c1OCC1=C(c2ccc(Cl)cc2)CCC1 [Compound 30, 3-[3-bromo-4-[[2-(4-chlorophenyl)cyclopenten-1-yl]methoxy]-5-methyl-phenyl]Propanoic Acid]	0.461	> 5 µM	0.512
CC(Cc1ccc(OCC2=C(c3ccc(Cl)cc3)CCC2)c(F)c1)C(=O)O (stereo not drawn) [Compound 34, 3-[4-[[2-(4-chlorophenyl)cyclopenten-1-yl]methoxy]-3-fluoro-phenyl]-2-methyl-Propanoic Acid]	–	> 5 µM	0.68
Cc1cc(CC(C)C(=O)O)ccc1OCC1=C(c2ccc(Cl)cc2)CCC1 (stereo not drawn) [Compound 36, 3-[4-[[2-(4-chlorophenyl)cyclopenten-1-yl]methoxy]-3-methyl-phenyl]-2-methyl-Propanoic Acid]	0.193	> 5 µM	0.235
Cc1cc(OCC2=C(c3ccc(Cl)cc3)CCC2)c(Br)cc1CCC(=O)O [Compound 67]	0.073	> 5 µM	0.167
Cc1c(CCC(=O)O)cc(Br)c(OCC2=C(c3ccc(Cl)cc3)CCC2)c1Br [Compound 68]	0.517	> 5 µM	1.94
O=C(O)CCc1ccc(OCC2=C(c3ccc(Cl)cc3)CCC2)cc1-c1ccccc1 [Compound 136, 3-[4-[[2-(4-chlorophenyl)cyclopenten-1-yl]methoxy]-2-phenyl-phenyl]Propanoic Acid]	–	> 5 µM	0.788
O=C(O)CCc1ccc(OCC2=C(c3ccc(Cl)cc3)CCC2)cc1Cl [Compound 143, 3-[2-chloro-4-[[2-(4-chlorophenyl)cyclopenten-1-yl]methoxy]phenyl]Propanoic Acid]	–	0.365 µM	0.466
Cc1cc(CC(C)C(=O)O)ccc1OCC1=C(c2ccc(F)cc2)CCC1 (stereo not drawn) [Compound 160, 3-[4-[[2-(4-fluorophenyl)cyclopenten-1-yl]methoxy]-3-methyl-phenyl]-2-methyl-Propanoic Acid]	0.215	> 5 µM	0.528
CCc1cc(OCC2=C(c3ccc(Cl)cc3)CCC2)ccc1CCC(=O)O [Compound 161, 3-[4-[[2-(4-chlorophenyl)cyclopenten-1-yl]methoxy]-2-ethyl-phenyl]Propanoic Acid]	–	0.401 µM	0.68
Cc1cc(CCC(=O)O)ccc1OCC1=C(c2ccc(Cl)cc2)CC(F)(F)C1 [Compound 166, 3-[4-[[2-(4-chlorophenyl)-4,4-difluoro-cyclopenten-1-yl]methoxy]-3-methyl-phenyl]Propanoic Acid]	0.024	4 µM	0.029
Cc1ccc(C2=C(COc3ccc(CCC(=O)O)cc3C)CC(F)(F)CC2)s1 [Compound 561, 3-[4-[[5,5-difluoro-2-(5-methyl-2-thienyl)cyclohexen-1-yl]methoxy]-3-methyl-phenyl]Propanoic Acid]	0.071	–	0.12

Continued by falling EC50 [1], values first:

EC50 (Human GPR120 short form) [µM]	EC50 (human GPR40)	EC50 [1] [µM]	SMILES
0.875	1.78 µM	0.981	O=C(O)CCc1ccc(OCC2=C(c3ccc(Cl)cc3)CCC2)cc1OC(F)(F)F [Compound 96, 3-[4-[[2-(4-chlorophenyl)cyclopenten-1-yl]methoxy]-2-(trifluoromethoxy)phenyl]Propanoic Acid]
0.237	0.834 µM	0.754	COc1cc(OCC2=C(c3ccc(Cl)cc3)CCC2)ccc1CCC(=O)O [Compound 97, 3-[4-[[2-(4-chlorophenyl)cyclopenten-1-yl]methoxy]-2-methoxy-phenyl]Propanoic Acid]
0.503	1.25 µM	0.727	CC(C)c1cc(OCC2=C(c3ccc(Cl)cc3)CCC2)ccc1CCC(=O)O [Compound 167, 3-[4-[[2-(4-chlorophenyl)cyclopenten-1-yl]methoxy]-2-isopropyl-phenyl]Propanoic Acid]
0.215	0.131 µM and 0.182 µM	0.491	O=C(O)CCc1ccc(OCC2=C(c3ccc(Cl)cc3)CCC2)cc1C(F)(F)F [Compound 39, 3-[4-[[2-(4-chlorophenyl)cyclopenten-1-yl]methoxy]-2-(trifluoromethyl)phenyl]Propanoic Acid]
0.238	–	0.409	O=C(O)CCc1cc(F)c(OCC2=C(c3cccs3)CCC(F)(F)C2)c(F)c1 [Compound 559, 3-[4-[[5,5-difluoro-2-(2-thienyl)cyclohexen-1-yl]methoxy]-3,5-difluoro-phenyl]Propanoic Acid]
0.202	–	0.363	Cc1c(CCC(=O)O)ccc(OCC2=C(c3ccc(Cl)cc3)CC(F)(F)CC2)c1C [Compound 568, 3-[4-[[2-(4-chlorophenyl)-4,4-difluoro-cyclohexen-1-yl]methoxy]-2,3-dimethyl-phenyl]Propanoic Acid]
0.061	> 5 µM	0.34	Cc1cc(CCC(=O)O)ccc1OCC1=C(c2ccc(F)cc2)CCC1 [Compound 42]
0.12	–	0.237	Cc1c(CCC(=O)O)ccc(OCC2=C(c3ccc(Cl)s3)CCC(F)(F)C2)c1C [Compound 563, 3-[4-[[2-(5-chloro-2-thienyl)-5,5-difluoro-cyclohexen-1-yl]methoxy]-2,3-dimethyl-phenyl]Propanoic Acid]
0.207	3.03 µM	0.208	O=C(O)CCc1ccc(OCC2=C(c3ccc(F)cc3)CCC2)cc1 [Compound 43, 3-[4-[[2-(4-fluorophenyl)cyclopenten-1-yl]methoxy]phenyl]Propanoic Acid]
0.09	–	0.176	Cc1ccc(C2=C(COc3ccc(CCC(=O)O)c(C)c3C)CC(F)(F)CC2)s1 [Compound 564, 3-[4-[[5,5-difluoro-2-(5-methyl-2-thienyl)cyclohexen-1-yl]methoxy]-2,3-dimethyl-phenyl]Propanoic Acid]
0.081	> 5 µM	0.168	Cc1c(CCC(=O)O)ccc(OCC2=C(c3ccc(F)cc3)CC(F)C2)c1C (stereo not drawn) [Compound 100]
0.024	> 5 µM	0.155	Cc1c(CCC(=O)O)ccc(OCC2=C(c3ccc(F)cc3)CC(F)(F)C2)c1C [Compound 10]
0.044	> 5 µM	0.147	O=C(O)CCc1ccc(OCC2=C(c3ccc(Cl)cc3)CCC2)c(Cl)c1Cl [Compound 99, 3-[2,3-dichloro-4-[[2-(4-chlorophenyl)cyclopenten-1-yl]methoxy]phenyl]Propanoic Acid]
0.136	> 5 µM	0.123	O=C(O)CCc1ccc(OCC2=C(c3ccc(F)cc3)CCC2)c(F)c1 [Compound 49]
